# Experimental data published in patent US11377442B2, “Small molecule agonists and antagonists of NR2F6 activity” (ZANDER THERAPEUTICS, INC., priority 2016, dated 2022).
# Read-outs that look alike come from different tables or passages of the source.
# What was measured:
# Assay type in all cases: cell-based
# NR2F6 LBD = molecular target: T1, NR2F6 LBD (Homo sapiens, UniProt P10588); test: NR2F6 LBD transient transfection; conditions: LBD
# T1 construct: expressed in transfected cells
# T1 sequence (P10588 165-393 limits assumed): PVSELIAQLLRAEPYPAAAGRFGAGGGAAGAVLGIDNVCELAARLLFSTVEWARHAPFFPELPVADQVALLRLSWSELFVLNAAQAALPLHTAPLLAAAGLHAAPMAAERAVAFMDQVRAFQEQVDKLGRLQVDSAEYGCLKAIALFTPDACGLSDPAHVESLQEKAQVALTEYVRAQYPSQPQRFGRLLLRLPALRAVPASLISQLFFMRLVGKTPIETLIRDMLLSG
# How it was run: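 LBD-transfected cells treated at 40, 10, 2 and 0.5 μM (4 replicates); cytotoxicity measured in parallel, normalized to DMSO (0%) and zero signal (100%). Higher concentrations excluded where signal loss reflected toxicity.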
# NR2F6 = molecular target: T2, NR2F6 (Homo sapiens, UniProt P10588); test: NR2F6 agonist screening, Firefly signal cmpd/DMSO
# T2 construct: expressed in transfected cells; also transient transfection
# T2 sequence (P10588 1-404): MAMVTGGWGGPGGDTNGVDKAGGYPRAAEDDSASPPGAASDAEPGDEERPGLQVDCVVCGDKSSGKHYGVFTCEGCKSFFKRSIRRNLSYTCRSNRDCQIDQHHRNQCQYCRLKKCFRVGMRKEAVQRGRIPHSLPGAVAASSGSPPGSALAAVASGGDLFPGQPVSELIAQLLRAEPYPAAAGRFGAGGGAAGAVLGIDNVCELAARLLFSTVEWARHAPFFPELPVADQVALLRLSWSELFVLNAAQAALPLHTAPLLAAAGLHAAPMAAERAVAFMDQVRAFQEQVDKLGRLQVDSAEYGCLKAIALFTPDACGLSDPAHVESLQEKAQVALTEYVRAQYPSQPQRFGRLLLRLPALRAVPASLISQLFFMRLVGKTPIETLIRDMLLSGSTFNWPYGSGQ
# Renilla = Renilla signal in NR2F6 agonist screening, cmpd/DMSO; conditions: Renilla, F4
# HEK293 pGL4 = test: Firefly_pGL signal, cmpd/DMSO (pGL4 control cells); conditions: Homo sapiens
# [1] = read-out: Renilla, F4, cmpd/DMSO (mean)
# [2] = 1% FBS, read-out: Renilla, F4, 1% FBS, cmpd/DMSO (mean)
# [3] = 10% FBS, read-out: Renilla, F4, 10% FBS, cmpd/DMSO (mean)
# [4] = HEK293, 0.5 uM, pGL4, read-out: Firefly pGL4, cmpd/DMSO (mean)
# [5] = HEK293, 2 uM, pGL4, read-out: Firefly pGL4, cmpd/DMSO (mean)
# [6] = HEK293, 10 uM, pGL4, read-out: Firefly pGL4, cmpd/DMSO (mean)
# [7] = HEK293, 40 uM, pGL4, read-out: Firefly pGL4, cmpd/DMSO (mean)
# [8] = HEK293, pGL4, 1% FBS, 0.5 uM, read-out: Firefly, pGL4, 1% FBS, cmpd/DMSO (mean)
# [9] = HEK293, pGL4, 1% FBS, 2 uM, read-out: Firefly, pGL4, 1% FBS, cmpd/DMSO (mean)
# [10] = HEK293, pGL4, 1% FBS, 10 uM, read-out: Firefly, pGL4, 1% FBS, cmpd/DMSO (mean)
# [11] = HEK293, pGL4, 1% FBS, 40 uM, read-out: Firefly, pGL4, 1% FBS, cmpd/DMSO (mean)
# [12] = HEK293, pGL4, 10% FBS, 0.5 uM, read-out: Firefly, pGL4, 10% FBS, cmpd/DMSO (mean)
# [13] = HEK293, pGL4, 10% FBS, 2 uM, read-out: Firefly, pGL4, 10% FBS, cmpd/DMSO (mean)
# [14] = HEK293, pGL4, 10% FBS, 10 uM, read-out: Firefly, pGL4, 10% FBS, cmpd/DMSO (mean)
# [15] = HEK293, pGL4, 10% FBS, 40 uM, read-out: Firefly, pGL4, 10% FBS, cmpd/DMSO (mean)
compound,measurement,setting,value
O=S1(=O)C[C@H](NC2CCCCCC2)[C@@H](S(=O)(=O)c2ccc(Cl)cc2)C1 [Compound D130],"Firefly LBD, cmpd/DMSO (mean)",NR2F6 LBD; 0.5 uM,1.1
same,"Firefly LBD, cmpd/DMSO (mean)",NR2F6 LBD; 2 uM,1.7
same,"Firefly LBD, cmpd/DMSO (mean)",NR2F6 LBD; 10 uM,3.1
same,"Firefly LBD, cmpd/DMSO (mean)",NR2F6 LBD; 40 uM,0.7
same,"Firefly F4, cmpd/DMSO (mean)",NR2F6; 0.5 uM,1.4
same,"Firefly F4, cmpd/DMSO (mean)",NR2F6; 2 uM,2.2
same,"Firefly F4, cmpd/DMSO (mean)",NR2F6; 10 uM,4.0
same,"Firefly F4, cmpd/DMSO (mean)",NR2F6; 40 uM,1.6
same,"F4, Firefly/Renilla for S/B(F4) > 3","NR2F6; 1% FBS, 10 uM",2.3
same,"Firefly, F4/pGL4 for S/B(F4) > 3","NR2F6; 1% FBS, 10 uM",1.8
same,"F4, Firefly/Renilla for S/B(F4) > 3","NR2F6; 10% FBS, 10 uM",2.7
same,"Firefly, F4/pGL4 for S/B(F4) > 3","NR2F6; 10% FBS, 10 uM",1.4
same,"F4, Firefly/Renilla for S/B(F4) > 3","NR2F6; 10% FBS, 40 uM",2.4
same,"Firefly, F4/pGL4 for S/B(F4) > 3","NR2F6; 10% FBS, 40 uM",2.0
same,"Firefly, F4, 1% FBS, cmpd/DMSO (mean)","NR2F6; 1% FBS, 0.5 uM",0.7
same,"Firefly, F4, 1% FBS, cmpd/DMSO (mean)","NR2F6; 1% FBS, 2 uM",1.2
same,"Firefly, F4, 1% FBS, cmpd/DMSO (mean)","NR2F6; 1% FBS, 10 uM",3.6
same,"Firefly, F4, 1% FBS, cmpd/DMSO (mean)","NR2F6; 1% FBS, 40 uM",0.6
same,"Firefly, F4, 10% FBS, cmpd/DMSO (mean)","NR2F6; 10% FBS, 0.5 uM",1.1
same,"Firefly, F4, 10% FBS, cmpd/DMSO (mean)","NR2F6; 10% FBS, 2 uM",1.2
same,"Firefly, F4, 10% FBS, cmpd/DMSO (mean)","NR2F6; 10% FBS, 10 uM",3.4
same,"Firefly, F4, 10% FBS, cmpd/DMSO (mean)","NR2F6; 10% FBS, 40 uM",5.0
same,fold induction at 0.5 µM,Renilla; [1],1.1
same,fold induction at 2 µM,Renilla; [1],1.2
same,fold induction at 10 µM,Renilla; [1],1.5
same,fold induction at 40 µM,Renilla; [1],1.8
same,fold induction at 0.5 µM,Renilla; [2],1.1
same,fold induction at 2 µM,Renilla; [2],1.2
same,fold induction at 10 µM,Renilla; [2],1.6
same,fold induction at 40 µM,Renilla; [2],1.9
same,fold induction at 0.5 µM,Renilla; [3],0.8
same,fold induction at 2 µM,Renilla; [3],0.9
same,fold induction at 10 µM,Renilla; [3],1.3
same,fold induction at 40 µM,Renilla; [3],2.1
same,fold induction at 0.5 µM,HEK293 pGL4; [4],1.2
same,fold induction at 2 µM,HEK293 pGL4; [5],1.8
same,fold induction at 10 µM,HEK293 pGL4; [6],3.4
same,fold induction at 40 µM,HEK293 pGL4; [7],0.6
same,fold induction at 0.5 µM,HEK293 pGL4; [8],1.2
same,fold induction at 2 µM,HEK293 pGL4; [9],2
same,fold induction at 10 µM,HEK293 pGL4; [10],2
same,fold induction at 40 µM,HEK293 pGL4; [11],0.9
same,fold induction at 0.5 µM,HEK293 pGL4; [12],1
same,fold induction at 2 µM,HEK293 pGL4; [13],1.6
same,fold induction at 10 µM,HEK293 pGL4; [14],2.5
same,fold induction at 40 µM,HEK293 pGL4; [15],2.5
CCCCN(C)[C@H]1CS(=O)(=O)C[C@@H]1S(=O)(=O)c1ccc(Cl)cc1 [Compound D132],"Firefly LBD, cmpd/DMSO (mean)",NR2F6 LBD; 0.5 uM,1.1
same,"Firefly LBD, cmpd/DMSO (mean)",NR2F6 LBD; 2 uM,2.1
same,"Firefly LBD, cmpd/DMSO (mean)",NR2F6 LBD; 10 uM,4.3
same,"Firefly LBD, cmpd/DMSO (mean)",NR2F6 LBD; 40 uM,0.4
same,"Firefly F4, cmpd/DMSO (mean)",NR2F6; 0.5 uM,1.5
same,"Firefly F4, cmpd/DMSO (mean)",NR2F6; 2 uM,1.9
same,"Firefly F4, cmpd/DMSO (mean)",NR2F6; 10 uM,5.5
same,"Firefly F4, cmpd/DMSO (mean)",NR2F6; 40 uM,1.1
same,"F4, Firefly/Renilla for S/B(F4) > 3","NR2F6; 1% FBS, 10 uM",3.0
same,"Firefly, F4/pGL4 for S/B(F4) > 3","NR2F6; 1% FBS, 10 uM",1.9
same,"F4, Firefly/Renilla for S/B(F4) > 3","NR2F6; 10% FBS, 10 uM",2.0
same,"Firefly, F4/pGL4 for S/B(F4) > 3","NR2F6; 10% FBS, 10 uM",1.2
same,"F4, Firefly/Renilla for S/B(F4) > 3","NR2F6; 10% FBS, 40 uM",1.8
same,"Firefly, F4/pGL4 for S/B(F4) > 3","NR2F6; 10% FBS, 40 uM",3.4
same,"Firefly, F4, 1% FBS, cmpd/DMSO (mean)","NR2F6; 1% FBS, 0.5 uM",0.7
same,"Firefly, F4, 1% FBS, cmpd/DMSO (mean)","NR2F6; 1% FBS, 2 uM",1.3
same,"Firefly, F4, 1% FBS, cmpd/DMSO (mean)","NR2F6; 1% FBS, 10 uM",5.0
same,"Firefly, F4, 1% FBS, cmpd/DMSO (mean)","NR2F6; 1% FBS, 40 uM",0.5
same,"Firefly, F4, 10% FBS, cmpd/DMSO (mean)","NR2F6; 10% FBS, 0.5 uM",0.9
same,"Firefly, F4, 10% FBS, cmpd/DMSO (mean)","NR2F6; 10% FBS, 2 uM",1.4
same,"Firefly, F4, 10% FBS, cmpd/DMSO (mean)","NR2F6; 10% FBS, 10 uM",3.3
same,"Firefly, F4, 10% FBS, cmpd/DMSO (mean)","NR2F6; 10% FBS, 40 uM",5.4
same,"Activity, cmpd/DMSO",NR2F6; Table 31,6.6
same,fold induction at 0.5 µM,Renilla; [1],1
same,fold induction at 2 µM,Renilla; [1],1.2
same,fold induction at 10 µM,Renilla; [1],1.7
same,fold induction at 40 µM,Renilla; [1],1.3
same,fold induction at 0.5 µM,Renilla; [2],1.1
same,fold induction at 2 µM,Renilla; [2],1.3
same,fold induction at 10 µM,Renilla; [2],1.7
same,fold induction at 40 µM,Renilla; [2],1.7
same,fold induction at 0.5 µM,Renilla; [3],0.9
same,fold induction at 2 µM,Renilla; [3],1.1
same,fold induction at 10 µM,Renilla; [3],1.6
same,fold induction at 40 µM,Renilla; [3],3
same,fold induction at 0.5 µM,HEK293 pGL4; [4],1.6
same,fold induction at 2 µM,HEK293 pGL4; [5],1.6
same,fold induction at 10 µM,HEK293 pGL4; [6],4.9
same,fold induction at 40 µM,HEK293 pGL4; [7],0.5
same,fold induction at 0.5 µM,HEK293 pGL4; [8],1
same,fold induction at 2 µM,HEK293 pGL4; [9],1.6
same,fold induction at 10 µM,HEK293 pGL4; [10],2.6
same,fold induction at 40 µM,HEK293 pGL4; [11],0.8
same,fold induction at 0.5 µM,HEK293 pGL4; [12],0.9
same,fold induction at 2 µM,HEK293 pGL4; [13],1.3
same,fold induction at 10 µM,HEK293 pGL4; [14],2.7
same,fold induction at 40 µM,HEK293 pGL4; [15],1.6
